Data from PubChem BioAssay (NCI).
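GI50: concentration for 50% inhibition of growth. TGI is the concentration that stops growth completely.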

Assays:
Assay in all cases: inhibition of tumour cell growth, NCI panel, 384-well format
[1] = test system: 786-0 renal
[2] = test system: A498 renal
[3] = test system: A549 NSCLC
[4] = test system: ACHN renal
[5] = test system: BT-549 breast
[6] = test system: CAKI-1 renal
[7] = test system: CCRF-CEM leukemia
[8] = test system: COLO 205 colon
[9] = test system: DU-145 prostate
[10] = test system: HCC-2998 colon
[11] = test system: HCT-116 colon
[12] = test system: HCT-15 colon
[13] = test system: HL-60(TB) leukemia
[14] = test system: HOP-62 NSCLC
[15] = test system: HOP-92 NSCLC
[16] = test system: HT29 colon
[17] = test system: IGROV1 ovarian
[18] = test system: K-562 leukemia
[19] = test system: KM12 colon
[20] = test system: LOX IMVI melanoma
[21] = test system: M14 melanoma
[22] = test system: MALME-3M melanoma
[23] = test system: MCF7 breast
[24] = test system: MDA-MB-231 breast
[25] = test system: MDA-MB-435 melanoma
[26] = test system: MDA-MB-468 breast
[27] = test system: MOLT-4 leukemia
[28] = test system: NCI-H226 lung

Compound: Cc1c(CN2CCC(Nc3ncnc4sc(CC(F)(F)F)cc34)CC2)ccc2c1cc(C#N)n2Cc1cn[nH]c1
- GI50 [1]: 1.16 µM
- TGI [1]: 2.39 µM
- GI50 [2]: 1.15 µM
- TGI [2]: 2.37 µM
- GI50 [3]: 1.35 µM
- TGI [3]: 2.67 µM
- GI50 [4]: 1.39 µM
- TGI [4]: 2.69 µM
- GI50 [5]: 0.901 µM
- TGI [5]: 2.12 µM
- GI50 [6]: 1.42 µM
- TGI [6]: 2.73 µM
- GI50 [7]: 0.668 µM
- TGI [7]: 1.96 µM
- GI50 [8]: 1.42 µM
- TGI [8]: 2.74 µM
- GI50 [9]: 1.7 µM
- TGI [9]: 3.09 µM
- GI50 [10]: 0.391 µM
- TGI [10]: 1.35 µM
- GI50 [11]: 0.417 µM
- TGI [11]: 1.61 µM
- GI50 [12]: 1.23 µM
- TGI [12]: 2.49 µM
- GI50 [13]: 0.627 µM
- TGI [13]: 1.68 µM
- GI50 [14]: 1.16 µM
- TGI [14]: 2.39 µM
- GI50 [15]: 1.33 µM
- TGI [15]: 2.61 µM
- GI50 [16]: 0.318 µM
- TGI [16]: 1.27 µM
- GI50 [17]: 1.35 µM
- TGI [17]: 3.4 µM
- GI50 [18]: 0.295 µM
- TGI [18]: 1.11 µM
- GI50 [19]: 1.28 µM
- TGI [19]: 2.56 µM
- GI50 [20]: 2.06 µM
- TGI [20]: 3.49 µM
- GI50 [21]: 1.62 µM
- TGI [21]: 2.98 µM
- GI50 [22]: 1.36 µM
- TGI [22]: 2.65 µM
- GI50 [23]: 1.02 µM
- TGI [23]: 2.19 µM
- GI50 [24]: 1.36 µM
- TGI [24]: 2.65 µM
- GI50 [25]: 1.86 µM
- TGI [25]: 3.27 µM
- GI50 [26]: 0.327 µM
- TGI [26]: 1.13 µM
- GI50 [27]: 0.486 µM
- TGI [27]: 1.69 µM
- GI50 [28]: 1.3 µM
- TGI [28]: 2.61 µM
